The text below walks through data of patent publication US12534449B2, “Stable crystalline hydrate of clazosentan disodium salt” (Idorsia Pharmaceuticals Ltd, priority 2020, dated 2026).

Structures are written as SMILES. Counter-ions that a name gives are not always drawn.

A short description of data set [1]: Solubility of COMPOUND in water. To be noted: room temperature.
Data set [2] in a line: Gravimetric vapor sorption (GVS) analysis. It is filed as physicochemical. The following applies: for behaviour of water content with relative humidity (GVS): humidity scan; for water content (GVS) in equivalents of water: equilibrium / final water content. As for the experimental part: Gravimetric vapor sorption analysis of form C was performed on a Hiden Isochema IGAsorp™ Model HAS-036-080. Approximately 20 mg of the sample was placed without any pre-treatment into a stainless-steel mesh sample holder. The measurement was run at 25° C. with changing the humidity in the order 40%-95%-0%-40% RH by steps of 5% RH and with maximum equilibration time of 24 h at each step. Gravimetric vapor sorption experiments for all the other hydrates disclosed herein were performed on a SPS 100n instrument from ProUmid GmbH & Co. KG. Typically, 10-20 mg of material were placed into tared aluminum pans without any pre-treatment. The measurements were again run at 25° C. and with changing the humidity in the order 20%-90%-0%-25% RH by steps of 5% and with maximum equilibration time of 24 h at each step. When plotting the data (see corresponding Figures), weight changes of one equivalent of water are indicated by dotted horizontal lines.

In the case of `COc1ccccc1Oc1c(NS(=O)(=O)c2ccc(C)cn2)nc(-c2ccnc(-c3nnn[nH]3)c2)nc1OCCO` [COMPOUND, 5-methyl-pyridine-2-sulfonic acid N-{6-(2-hydroxy-ethoxy)-5-(2-methoxy-phenoxy)-2-[2-(1H-tetrazol-5-yl)-pyridin-4-yl]-pyrimidin-4-yl}-amide disodium salt], in data set [1], the solubility in water result was “about 25 g in 100 mL”.

On to `COc1ccccc1Oc1c([N-]S(=O)(=O)c2ccc(C)cn2)nc(-c2ccnc(-c3nnn[n-]3)c2)nc1OCCO.[Na+].[Na+]` [form C], for which the “behaviour of water content below 5% RH (GVS)” value in data set [2] (25° C., below 5% RH) is “decreases dramatically”. Further, the “behaviour of water content with relative humidity (GVS)” value in data set [2] (25° C.) was “stable with a slight increase between 5% and 95% RH”. Also, the “water content at the starting point (GVS)” value in data set [2] (40% RH, 25° C., dry basis) came to 14%.

Regarding `COc1ccccc1Oc1c([N-]S(=O)(=O)c2ccc(C)cn2)nc(-c2ccnc(-c3nnn[n-]3)c2)nc1OCCO.[Na+].[Na+]` [form E], the “water content at equilibrium (GVS scan)” value in data set [2] (25° C.) is listed as 3%. In addition, the “water content (GVS) in equivalents of water” value in data set [2] is “approx. 1 equivalents”.

As to `COc1ccccc1Oc1c([N-]S(=O)(=O)c2ccc(C)cn2)nc(-c2ccnc(-c3nnn[n-]3)c2)nc1OCCO.[Na+].[Na+]` [form L], the “final water content (GVS experiment)” value in data set [2] (dried at 0% RH, then re-humidified at 40% RH) was “about 8%”. Further, the “water content (GVS) in equivalents of water” value in data set [2] was determined as 3 equivalents.

Consider `COc1ccccc1Oc1c([N-]S(=O)(=O)c2ccc(C)cn2)nc(-c2ccnc(-c3nnn[n-]3)c2)nc1OCCO.[Na+].[Na+]` [form N], for which, in data set [2] (25° C.), the “hydrate stoichiometry attributed from GVS water content / uptake” value is reported as “tetrahydrate” and the “behaviour of water content with relative humidity (GVS)” value was “noticeable adsorption of excess water with increasing relative humidity”.

As to `COc1ccccc1Oc1c([N-]S(=O)(=O)c2ccc(C)cn2)nc(-c2ccnc(-c3nnn[n-]3)c2)nc1OCCO.[Na+].[Na+]` [form P], the “hydrate stoichiometry attributed from GVS water content / uptake” value in data set [2] (25° C.) was “trihydrate”.
